“Also recorded” adds a separate entry of the source.
What was measured:
Aβ1-42 aggregation = target: T1, Aβ1-42 aggregation (Homo sapiens, UniProt P05067); assay: Inhibition of Aβ1-42 aggregation, thioflavin T (ThT) method; assay type: biochemical; conditions: for inhibitory activity against Aβ1-42 aggregation (in words): 1 to 10 μM; for inhibition ratio towards Aβ1-42 aggregation: at 10 μM
T1 construct: pre-treated Aβ1–42 (GL Biochem Ltd); purchased GL Biochem Ltd, shanghai, China
Description: The ThT-based fluorometric assay [54] was performed for the determination of compounds’ anti-Aβ1–42 aggregation potency.
Determination of the inhibitory potency on Aβ1–42 aggregation
1,1,1,3,3,3-hexafluoro-2-propanol (HFIP) pre-treated Aβ1–42 (GL Biochem Ltd, shanghai, China) was dissolved in DMSO to make a 200 μM stock solution. The stock solution was centrifuged at the speed of 13,500 rpm for 10 min. The above supernatant was used for further experiments. The compounds for testing were dissolved in DMSO at concentrations of 0.8 mM. A screening assay for the compounds to inhibit Aβ aggregation was performed by measuring ThT fluorescence emission.
μL) and 2 μL of 200 μM Aβ1–42 were added into 76 μL of phosphate-bufered saline (PBS at pH 7.4) in a 96-well microtiter plate. After incubation for 24 h at room temperature, 80 μL of 5 μM ThT solution (in 50 mM glycine-NaOH at pH 8.5) was added to the reaction solution. Fluorescence emission was measured at 490 nm with an excitation wavelength of 450 nm on a Tecan Spark multimode microplate reader. The fluorescence intensities were compared and the % inhibition was calculated by the following equation: 100 − [(Fi − Fb)/(Fo − Fb) × 100] where Fi, Fo and Fb are the fluorescence intensities obtained for Aβ aggregation in the presence of inhibitors, A β1– 42 and ThT; in the presence of Aβ1–42 and THT but no inhibitors; and the blanks

[1] = system: Aβ1-42-induced toxicity in SH-SY5Y cells; assay: Protective activity against Aβ1-42-induced toxicity, MTT method; assay type: cell-based; conditions: for viability at 5 µM / viability at 10 µM: Homo sapiens, SH-SY5Y, 24 h, read-out: cell viability of Aβ1-42-treated SH-SY5Y cells
Description: Based on this observation, compound 23 might be a more promising protective agent against Aβ1-42-induced toxicity on the SH-SY5Y cell model.
(§1) The MTT method was used to test the cytotoxicity and neuroprotective activity evaluation of compounds. The detailed procedure was included in Supplementary Materials. […]
(§2) formazan crystals. The formazan dye product was measured by the absorbance at 490 nm on a Tecan Spark multimode microplate reader (Tecan, Switzerland).
(§3) Neuroprotective activity assay
SH-SY5Y cells were maintained at 37 °C in a humidified atmosphere containing 5% CO2. Cells were seeded into multi-well plates at a density of 2~2.5 × 10^5 cells/mL in DMEM medium, supplemented with 10% heat-inactivated bovine calf serum (Gibco, South America Origin). Experiments were carried out in 24 h after cells were seeded.
Aβ1–42 were stored at 4 °C until 0.1 mM stock solutions were prepared in phosphate bufer saline (PBS) on the day of application to cultures. Th e compounds were first dissolved with DMSO and then diluted with DMEM medium. After pretreatment with the compounds for 2 h, Aβ1–42 were added to SH-SY5Y cell cultures in 24 h. Assays for cell viability were performed in 24 h after cultured in fresh medium .

[2] = system: SH-SY5Y neuroblastoma cells; assay: Cell viability (cytotoxicity) MTT assay; assay type: cell-based; conditions: tested concentrations up to 200 μM
Description: as §1
42 and ThT; in the presence of Aβ1–42 and THT but no inhibitors; and the blanks […]
SH-SY5Y cells were inoculated into 96-well plates, and each well was seeded with […]. After incubation for 24 h, the medium was removed and replaced with 100 µL medium containing the different concentrations of tested compounds for 24 h, and then incubated with 10 µL of 3-(4,5-dimethylthiazol-2-yl)-2,5-diphenyltetrazolium bromide (MTT) at 37 °C for 3 h. In this step, 100 µL DMSO was added to dissolve the […]
(1 picture or pasted object on this page, not shown here) […]
as §2, §3
SH-SY5Y cells were maintained at 37 °C in a humidified atmosphere containing 5% CO2. Cells were seeded into multi-well plates at a density of 2~2.5 × 10^5 cells/mL in DMEM medium, supplemented with 10% heat-inactivated bovine calf serum (Gibco, South America Origin). Experiments were carried out in 24 h after cells were seeded. […]
Th e compounds were first dissolved with DMSO and then diluted with DMEM medium. […]

[3] = target: T2, AChE (from human erythrocyte) (Homo sapiens, UniProt P22303); assay: biochemical; conditions: at 50 μM
T2 construct: AChE (EC 3.1.1.8, from human erythrocyte); purchased Sigma-Aldrich (St. Louis, MO, USA); host or cells: human erythrocyte
Description: (§4) BChE (EC 3.1.1.8, from human serum), AChE (EC […]), butyrylthiocholine (BUC) iodide, and acetylthiocholine (ATC) iodide were purchased from Sigma-Aldrich (St. Louis, MO, USA). Enzyme was dissolved and pre-prepared at 2.0 U/mL. 10 μL of enzyme, 20 μL of 0.01 M 5,5′-dithiobis(2-nitrobenzoic acid), 10 μL of tested compound, and 40 μL of PBS were pre-incubated together for 5 min. Io initiate the reaction, 20 μL of 0.01 M BUC or ATC was added. The activity was determined by measuring the increase in absorbance at 410 nm at 37 °C in 2 min intervals using Tecan Spark multimode microplate reader (Mannedorf, Switzerland). The percentage of inhibition (I) was calculated according to the formula: I = (Ac − Ai)/Ac × 100%, with Ai and Ac representing the change in the absorbance in the presence of an inhibitor and without an inhibitor, respectively.

[4] = target: T3, BChE (EC 3.1.1.8, from human serum) (Homo sapiens, UniProt P06276); assay: biochemical; conditions: for BChE IR (%) inhibition ratio: at 50 μM; for improved BChE inhibitory activity, folds compared with 1: compared with hit 1; for IC50: mean ± SD of three separate experiments
T3 construct: BChE (EC 3.1.1.8, from human serum); purchased Sigma-Aldrich (St. Louis, MO, USA); host or cells: human serum
Description: as §4

BChE = target: T4, BChE (Homo sapiens, UniProt P06276); assay: Kinetic study of BChE inhibition (Lineweaver-Burk); assay type: biochemical
T4 construct: BChE (EC 3.1.1.8, from human serum); purchased Sigma-Aldrich (St. Louis, MO, USA); host or cells: human serum
Description: To further understand the action mechanism for BChE inhibition of this series of compounds, the kinetic assay was performed with the optimal compound 23 as a model compound. […]. […] The result was confirmed by the subsequent molecular docking study of 23. […].
Kinetic study of BChE inhibition was performed by using Ellman’s method as described in Section 3.3.
Figure 3 Kinetic study of 23 on BChE inhibition. […];

T1 sequence (P05067 672-713): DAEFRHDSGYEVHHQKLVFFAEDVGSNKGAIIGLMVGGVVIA
T3 sequence (P06276 29-602): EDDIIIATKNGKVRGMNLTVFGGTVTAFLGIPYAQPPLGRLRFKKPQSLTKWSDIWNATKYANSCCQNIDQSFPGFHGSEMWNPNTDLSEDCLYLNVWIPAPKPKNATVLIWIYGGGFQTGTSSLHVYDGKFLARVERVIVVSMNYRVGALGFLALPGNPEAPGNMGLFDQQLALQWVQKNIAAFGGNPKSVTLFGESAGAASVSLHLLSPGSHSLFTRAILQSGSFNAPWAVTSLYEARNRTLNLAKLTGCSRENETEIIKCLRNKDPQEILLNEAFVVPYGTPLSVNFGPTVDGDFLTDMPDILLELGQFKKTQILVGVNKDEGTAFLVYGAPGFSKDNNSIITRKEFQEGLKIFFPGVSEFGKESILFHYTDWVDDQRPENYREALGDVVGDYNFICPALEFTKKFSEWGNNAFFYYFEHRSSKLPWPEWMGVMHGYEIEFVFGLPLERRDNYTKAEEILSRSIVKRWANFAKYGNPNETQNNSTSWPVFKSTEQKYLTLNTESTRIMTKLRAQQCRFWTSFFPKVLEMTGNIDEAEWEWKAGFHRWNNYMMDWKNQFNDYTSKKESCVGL
T2 sequence (P22303 other isoform, or with tags, fused parts or gaps): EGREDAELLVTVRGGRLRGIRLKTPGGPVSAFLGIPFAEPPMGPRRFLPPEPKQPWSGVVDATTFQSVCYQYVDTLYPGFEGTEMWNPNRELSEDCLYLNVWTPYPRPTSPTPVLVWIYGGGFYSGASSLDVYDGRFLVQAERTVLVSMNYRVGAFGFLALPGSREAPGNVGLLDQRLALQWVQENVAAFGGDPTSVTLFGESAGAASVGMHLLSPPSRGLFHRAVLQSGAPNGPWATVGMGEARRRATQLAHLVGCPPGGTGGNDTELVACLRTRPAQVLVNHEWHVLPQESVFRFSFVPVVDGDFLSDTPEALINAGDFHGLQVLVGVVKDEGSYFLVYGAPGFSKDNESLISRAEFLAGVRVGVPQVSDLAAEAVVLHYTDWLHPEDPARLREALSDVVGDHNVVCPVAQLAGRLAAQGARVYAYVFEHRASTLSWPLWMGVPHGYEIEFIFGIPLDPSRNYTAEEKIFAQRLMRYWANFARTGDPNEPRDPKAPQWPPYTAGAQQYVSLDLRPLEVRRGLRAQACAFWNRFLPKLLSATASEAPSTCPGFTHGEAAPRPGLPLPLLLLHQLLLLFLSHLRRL
T4 sequence (P06276 29-602): as the sequence (P06276 29-602) above

SMILES | inhibitory activity against Aβ1-42 aggregation (in words) (Aβ1-42 aggregation) | inhibition ratio towards Aβ1-42 aggregation (Aβ1-42 aggregation) [%] | viability at 5 µM [1] [%] | viability at 10 µM [1] [%] | cytotoxicity towards SH-SY5Y cells [2] | AChE IR (%) inhibition ratio [3] [%] | BChE IR (%) inhibition ratio [4] [%] | improved BChE inhibitory activity, folds compared with 1 [4] [fold] | IC50 [4] [nM] | Ki (BChE; BChE, read-out: KI value (replot of slope against concentration)) [nM] | type of BChE inhibition (BChE; Lineweaver-Burk plots) | fold increase in BChE inhibitory potency ([4]; compared with 9) | fold increase in BChE inhibitory potency ([4]; compared with 16) [fold] | cell viability of Aβ1-42-treated SH-SY5Y cells ([1]; compound at 10 μM, 10 μM Aβ1-42 for 24h) [%]
O=C(c1ccc(CN2CCc3ccccc3C2)cc1)N1CCCC1 [Compound 9, (4-((3,4-dihydroisoquinolin-2(1H)-yl)methyl)phenyl)(pyrrolidin-1-yl)methanone] | dose-dependent manner | 45.5 ± 6.2 | 84.7 ± 1.77 | 88.8 ± 0.81 | did not show obvious cytotoxicity; also recorded: non-toxic | 29.1 | 95.1 | 9 | 2680 ± 280 |  |  |  |  | 
O=C(Nc1ccccc1Br)c1ccc(CN2CCc3ccccc3C2)cc1 [Compound 23, N-(2-bromophenyl)-4-((3,4-dihydroisoquinolin-2(1H)-yl)methyl)benzamide] | dose-dependent manner | 44.2 ± 3.3 | 91.1 ± 1.25 | 98 ± 1.7 | did not show obvious cytotoxicity; also recorded: non-toxic | 22.7 | 97.9 | 21 | 830 ± 80 | 520 | mixed-type inhibitor | about 3 fold | ~8 | 
O=C(O[C@@H]1Cc2c(O)cc(O)cc2O[C@@H]1c1cc(O)c(O)c(O)c1)c1cc(O)c(O)c(O)c1 [EGCG, epigallocatechin gallate, reference compound] |  |  |  |  |  |  |  |  |  |  |  |  |  | 87.18 ± 1.29

From PMC6680840 (Molecules, 2019)
